In patent publication US8452543B2, “High throughput screening for antimicrobial dosing regimens” (priority 2005, dated 2013):
Where two headings read alike, the source gives them in different places.

Columns and labels:
P. aeruginosa ATCC 27853 = experiment: Time-kill studies and growth dynamics model, meropenem; assay type: cell-based, Pseudomonas aeruginosa; conditions: for EC50: read-out: Ck50 (the source's name)
Procedure: Time-kill studies were conducted with different and escalating meropenem concentrations. […] An overnight culture of the isolate was diluted 30-fold with pre-warmed Ca-MHB and incubated further at 35 8 C until reaching late log phase growth. The bacterial suspension was diluted with Ca-MHB accordingly based on absorbance at 630 nm; 15 mL of the suspension was transferred to 50 mL sterile conical flasks each containing 1 mL of an antimicrobial agent solution at 16 the target concentration. The final concentration of the bacterial suspension in each flask was 1×10^8 cfu/mL. The high inoculum used was to simulate the bacterial load in severe infection, and to allow resistant sub-population(s) to be present at baseline. The experiment was conducted for 24 h in a shaker water bath set at 35 8 C. Serial samples in duplicate were obtained from each flask over 24 h, at 0 (baseline), 2, 4, 8, 12, and 24 h, to characterize the effect of various meropenem concentrations on the total bacterial population. Prior to culturing the bacteria quantitatively, the bacterial samples (0.5 mL) were centrifuged at 10000 g for 15 min, and reconstituted with sterile normal saline to their original volumes in order to minimize drug carry-over effect. Total bacterial populations were quantified by spiral plating 10 serial dilutions of the samples ([…]) onto MHA plates. The media plates were incubated in a humidified incubator (35 8 C) for 18-24 h, and the bacterial density from each sample was determined by CASBA-4 colony scanner/software (Spiral Biotech, Bethesda, Md., USA). The theoretical lower limit of detection was 400 cfu/mL.
The time courses of bacterial burden under different drug exposures is described using a mathematical model. The population balance for a bacterial population is determined by: Rate of change of bacterial population over time=intrinsic growth rate−kill rate by antimicrobial agent or
In contrast to the conventional approach in which the final observed effects are modelled, information over time was utilized to develop a dynamic model system that would capture bacterial growth/killing rates. The starting point was a mathematical model describing the time course of bacterial burden [biological response, N(t)] under the influence of various antimicrobial agent concentrations C(t). The rate of change of bacteria over time was expressed as the difference between the intrinsic bacterial growth rate and the kill rate provided by the antimicrobial agent (Eq. 35). Based on previous studies, a linear bacterial growth rate was adopted. Additional model parameters were used to account for other physiological phenomena such as contact inhibition (using a maximum population size) and non-linear (sigmoidal) kill rate to account for target site saturation. Regrowth was attributed to adaptation, which was explicitly modelled as increase in the concentration necessary to achieve 50% maximal kill rate (C50k), using a saturable function of antimicrobial agent selective pressure (both meropenem concentration and time) (Eq. 36).
The experimental data derived from the time-kill studies were analysed by population analysis, using the non-parametric adaptive grid (NPAG) program (28). The killing profile observed with each meropenem concentration was input as a subject in the population analysis. The search algorithm sought the combination of parameter values and their distributions that would have the highest likelihood of explaining the observations made with all the meropenem concentrations in a single step (as opposed to fixing some parameter estimates sequentially while estimating the others). The explicit assumption was made that overall observation variance was proportional to variance of the measurement, i.e. quantitative cultures. The proportionality constant g was optimized with each cycle of the analysis.

in vivo = experiment: in vivo
Procedure: In vivo meropenem concentrations in mouse serum were determined by a microbioassay utilizing Escherichia coli ATCC 25922 as the reference organism. The meropenem standard solutions ranged from 0.5 to 128 μg/ml in mouse serum.
Female Swiss-Webster mice (22-26 g) were used; all mice were cared for in accordance to the highest humane and ethical standards, as approved by the Institutional Animal Care and Use Committee (IACUC). The animals were housed in isolation boxes to decrease the risk of infection from extraneous pathogens. They received food and water ad libitum. The animals were rendered neutropenic by 2 intra-peritoneal injections of cyclophosphamide (Sigma, St. Louis, Mo.) 150 mg/kg on day −4 and 100 mg/kg on day −1 prior to infection; previous studies have shown that this regimen would produce neutropenia for 5 days (13, 16). Transient nephrotoxicity was induced by 1 intra-peritoneal injection of uranyl nitrate (5 mg/kg on day −2), which has been previously shown to produce a significant stable reduction in renal function for at least 7 days (21).
The bacterial inoculum was prepared and inoculated into the animals as outlined below. […] Six mice were sacrificed by CO2 asphyxiation at 0.5, 1, 1.5, 2, and 3 hours after injection. Blood samples were collected via cardiac puncture. The blood was allowed to clot on ice and centrifuged; meropenem concentrations in these serum samples were assayed by a validated method as described below. The serum concentration profiles of all the animals were analyzed by linear regression of the logarithmic-transformed data.

[1] = Mean of the parameter estimates
[2] = female, Swiss-Webster, mouse, in vivo, 400 mg/kg

In the case of `C[C@@H](O)[C@H]1C(=O)N2C(C(=O)O)=C(S[C@@H]3CN[C@H](C(=O)N(C)C)C3)[C@H](C)[C@H]12` [meropenem], the regrowth (P. aeruginosa ATCC 27853; 0.25 MIC and 1 MIC, between 12 and 24 h) is reported as “Regrowth was observed”, the Kg (P. aeruginosa ATCC 27853; [1]) is reported as 4.71 h − 1 and the Kg (P. aeruginosa ATCC 27853; meropenem Concn 0.25 mg/L) is reported as 9.60 h − 1. It also gave a Kg (P. aeruginosa ATCC 27853; meropenem Concn 1 mg/L) of 4.08 h − 1, a Kg (P. aeruginosa ATCC 27853; meropenem Concn 4 mg/L) of 3.12 h − 1 and a Kg (P. aeruginosa ATCC 27853; meropenem Concn 16 mg/L) of 3.41 h − 1. The Kg (P. aeruginosa ATCC 27853; meropenem Concn 64 mg/L) was 3.95 h − 1, the H (P. aeruginosa ATCC 27853; [1]) was 2.83 and the β (P. aeruginosa ATCC 27853; [1]) was 5.85. The τ (P. aeruginosa ATCC 27853; [1]) was 158 µL/min/mg, the MIC (P. aeruginosa ATCC 27853; Pseudomonas aeruginosa, ATCC27853, 24 h, validation time-kill, meropenem at 2 MIC, read-out: MIC of the entire bacterial population at 24 h) was > 1 µg/mL and the EC50 (P. aeruginosa ATCC 27853; Pseudomonas aeruginosa, ATCC27853, Mean of the parameter estimates) was 2.29 µg/mL. It also gave an EC50 (P. aeruginosa ATCC 27853; Pseudomonas aeruginosa, ATCC27853, meropenem Concn 0.25 mg/L) of 0.44 µg/mL, an EC50 (P. aeruginosa ATCC 27853; Pseudomonas aeruginosa, ATCC27853, meropenem Concn 1 mg/L) of 3.53 µg/mL and an EC50 (P. aeruginosa ATCC 27853; Pseudomonas aeruginosa, ATCC27853, meropenem Concn 4 mg/L) of 0.74 µg/mL. For the same compound, the EC50 (P. aeruginosa ATCC 27853; Pseudomonas aeruginosa, ATCC27853, meropenem Concn 16 mg/L) was 2.61 µg/mL, the EC50 (P. aeruginosa ATCC 27853; Pseudomonas aeruginosa, ATCC27853, meropenem Concn 64 mg/L) was 2.9 µg/mL and the “concentration necessary to attain 80% maximal kill rate (C80k)” value (P. aeruginosa ATCC 27853; at baseline) was 3.8 mg/L. For the same compound, the “concentration necessary to attain 90% maximal kill rate (C90k)” value (P. aeruginosa ATCC 27853; at baseline) was 5.0 mg/L, the H (P. aeruginosa ATCC 27853; meropenem Concn 0.25 mg/L) was 3.81 and the β (P. aeruginosa ATCC 27853; meropenem Concn 0.25 mg/L) was 3.79. The τ (P. aeruginosa ATCC 27853; meropenem Concn 0.25 mg/L) was 350 µL/min/mg, the H (P. aeruginosa ATCC 27853; meropenem Concn 1 mg/L) was 1.48 and the β (P. aeruginosa ATCC 27853; meropenem Concn 1 mg/L) was 6.64. The τ (P. aeruginosa ATCC 27853; meropenem Concn 1 mg/L) was 183 µL/min/mg, the H (P. aeruginosa ATCC 27853; meropenem Concn 4 mg/L) was 1.67 and the β (P. aeruginosa ATCC 27853; meropenem Concn 4 mg/L) was 4.48. For the same compound, the τ (P. aeruginosa ATCC 27853; meropenem Concn 4 mg/L) was 115 µL/min/mg, the H (P. aeruginosa ATCC 27853; meropenem Concn 16 mg/L) was 7.74 and the β (P. aeruginosa ATCC 27853; meropenem Concn 16 mg/L) was 4.85. It also gave a τ (P. aeruginosa ATCC 27853; meropenem Concn 16 mg/L) of 85 µL/min/mg, an H (P. aeruginosa ATCC 27853; meropenem Concn 64 mg/L) of 0.79 and a β (P. aeruginosa ATCC 27853; meropenem Concn 64 mg/L) of 8.70. For the same compound, the τ (P. aeruginosa ATCC 27853; meropenem Concn 64 mg/L) was 23.3 µL/min/mg, the “drop in bacterial burden at 24 h” value (P. aeruginosa ATCC 27853; meropenem concentrations 4 MIC (4 mg/L)) was > 2 log and the “concentration at which initial killing appeared maximized” value (P. aeruginosa ATCC 27853; time-kill) was 4 MIC. For the same compound, the killing profile (P. aeruginosa ATCC 27853; time-kill) was “partially concentration-dependent”, the regrowth (P. aeruginosa ATCC 27853; validation time-kill, meropenem at 2 MIC) was “regrowth” and the regrowth (P. aeruginosa ATCC 27853; validation time-kill, meropenem at 32 MIC) was “no regrowth was observed”. For the same compound, the “% T>MIC” value (in vivo; 400 mg/kg, OprD− mutant) was 26%, the “% T>MIC” value (in vivo; 400 mg/kg, wild-type isolate) was 33% and the Cmax (in vivo; [2]) was 354 µg/mL. For the same compound, the half-life (in vivo; [2]) was 19 min and the serum concentration (in vivo; lower doses (50 mg/kg and 100 mg/kg)) was “did not result a detectable serum meropenem concentration beyond 1 hour”.
